The test concerns the target HDAC3 (Homo sapiens, UniProt O15379). The test is described as follows: preliminary enzyme kinetics of HDAC3 inhibition. It counts as biochemical.

One may read the Ki as a measure of affinity in units of concentration, obtained from inhibition or displacement. A high value points to weaker binding.

Sequence of HDAC3 (O15379 whole entry): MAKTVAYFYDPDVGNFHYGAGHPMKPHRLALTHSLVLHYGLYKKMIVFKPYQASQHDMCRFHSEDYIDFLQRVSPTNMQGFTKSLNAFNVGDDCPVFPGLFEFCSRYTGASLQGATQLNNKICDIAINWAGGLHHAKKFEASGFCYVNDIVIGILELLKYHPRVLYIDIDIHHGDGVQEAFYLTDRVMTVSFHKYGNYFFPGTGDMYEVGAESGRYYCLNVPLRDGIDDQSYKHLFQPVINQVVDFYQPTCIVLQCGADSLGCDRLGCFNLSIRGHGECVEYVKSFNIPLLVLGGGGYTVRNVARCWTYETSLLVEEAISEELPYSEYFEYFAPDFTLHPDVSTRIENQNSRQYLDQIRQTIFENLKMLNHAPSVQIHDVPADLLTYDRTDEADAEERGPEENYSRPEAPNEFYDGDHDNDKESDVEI

Compound `C[Se]CCC(=O)C(=O)O` [KMSB, α-keto-γ-methylselenobutyrate] registered a Ki of around 30 µM.

The values are drawn from paper PMC2902275 (Cancer prevention research (Philadelphia, Pa.), 2009).
